These results are taken from article PMC8434776 (Antiviral research, 2021).

Assay [1] deals with T1, human cytochrome P450 51 (hCYP51) (Homo sapiens, UniProt Q16850).
T1 sequence (Q16850 1-509): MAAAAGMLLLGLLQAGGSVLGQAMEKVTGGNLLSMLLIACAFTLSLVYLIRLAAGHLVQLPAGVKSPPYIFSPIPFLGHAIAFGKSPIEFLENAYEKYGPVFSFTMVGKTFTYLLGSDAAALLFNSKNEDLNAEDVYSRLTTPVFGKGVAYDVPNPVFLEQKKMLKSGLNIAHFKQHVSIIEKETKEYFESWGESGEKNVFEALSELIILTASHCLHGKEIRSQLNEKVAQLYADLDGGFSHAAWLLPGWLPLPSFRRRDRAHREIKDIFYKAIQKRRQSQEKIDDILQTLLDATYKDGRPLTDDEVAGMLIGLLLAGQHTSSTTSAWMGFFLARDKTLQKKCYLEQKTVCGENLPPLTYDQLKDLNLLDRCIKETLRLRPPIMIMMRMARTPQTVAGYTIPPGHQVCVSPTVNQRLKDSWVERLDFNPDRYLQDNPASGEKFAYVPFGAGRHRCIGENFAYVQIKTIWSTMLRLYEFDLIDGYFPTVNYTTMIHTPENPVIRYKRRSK
Briefly: enzymatic assay, [[…]-3H]lanosterol conversion by purified hCYP51/CPR, radio-HPLC. The class given is biochemical.

Assay [2] addresses T1, human cytochrome P450 51 (hCYP51). Described as above. Type of assay: biochemical. The source holds these as a separate data set.

SMILES strings stand for the structures. Read-outs that look alike come from different tables or passages of the source.

Broadly, the IC50 is the point on the concentration scale where inhibition reaches its midpoint. With `CC[C@@H]([C@H](C)O)n1ncn(-c2ccc(N3CCN(c4ccc(OC[C@@H]5CO[C@@](Cn6cncn6)(c6ccc(F)cc6F)C5)cc4)CC3)cc2)c1=O` [PCZ, posaconazole], the 50% inhibitory concentration (IC50) in assay [1] worked out at 8.3 µM.

`C[C@@H](c1nc(-c2ccc(C#N)cc2)cs1)[C@](O)(Cn1cncn1)c1cc(F)ccc1F` [ICZ, isavuconazole] had an IC50 in assay [2] of 50.5 µM.
